Where a name gives a salt, the structure may show the parent alone. Read-outs that look alike come from different tables or passages of the source.
Tests used:
[1] = molecular target: purified human plasma kallikrein (Homo sapiens (Human), UniProt P03952); test: Plasma kallikrein enzyme inhibition assay (chromogenic substrate S-2302); format: biochemical
[2] = molecular target: purified human Factor XIa (Homo sapiens (Human), UniProt P03951); test: Factor XIa enzyme inhibition assay (chromogenic substrate S-2366)
[3] = measured at 25° C. (no asterisk)
[4] = read-out: Factor XIa Ki, measured at 25° C.

Sequence of purified human plasma kallikrein (P03952 391-638): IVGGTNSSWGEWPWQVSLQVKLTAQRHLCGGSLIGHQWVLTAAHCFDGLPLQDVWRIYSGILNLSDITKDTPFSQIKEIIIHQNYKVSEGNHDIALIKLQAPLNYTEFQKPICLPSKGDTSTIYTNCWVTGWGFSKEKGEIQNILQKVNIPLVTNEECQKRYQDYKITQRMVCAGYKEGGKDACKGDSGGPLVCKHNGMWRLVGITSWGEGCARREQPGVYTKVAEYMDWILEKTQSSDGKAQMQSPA
Sequence of purified human plasma kallikrein (P03952 20-390 partner): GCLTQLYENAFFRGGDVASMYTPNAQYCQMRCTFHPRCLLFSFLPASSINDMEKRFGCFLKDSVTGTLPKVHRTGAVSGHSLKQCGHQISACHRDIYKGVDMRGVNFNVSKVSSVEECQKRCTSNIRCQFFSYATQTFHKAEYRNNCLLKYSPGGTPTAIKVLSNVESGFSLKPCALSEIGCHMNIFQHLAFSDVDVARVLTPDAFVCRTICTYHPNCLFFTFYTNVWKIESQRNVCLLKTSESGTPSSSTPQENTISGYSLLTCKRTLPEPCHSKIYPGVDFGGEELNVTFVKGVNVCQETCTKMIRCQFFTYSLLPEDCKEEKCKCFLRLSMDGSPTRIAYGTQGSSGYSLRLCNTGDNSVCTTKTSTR
Sequence of purified human Factor XIa (P03951 388-625): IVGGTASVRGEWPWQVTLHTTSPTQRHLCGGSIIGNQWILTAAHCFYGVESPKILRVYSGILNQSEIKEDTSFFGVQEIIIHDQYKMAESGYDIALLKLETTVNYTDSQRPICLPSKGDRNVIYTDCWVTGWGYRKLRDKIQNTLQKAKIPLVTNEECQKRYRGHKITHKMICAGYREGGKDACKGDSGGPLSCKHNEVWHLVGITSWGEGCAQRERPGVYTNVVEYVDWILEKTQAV
Sequence of purified human Factor XIa (P03951 19-387 partner): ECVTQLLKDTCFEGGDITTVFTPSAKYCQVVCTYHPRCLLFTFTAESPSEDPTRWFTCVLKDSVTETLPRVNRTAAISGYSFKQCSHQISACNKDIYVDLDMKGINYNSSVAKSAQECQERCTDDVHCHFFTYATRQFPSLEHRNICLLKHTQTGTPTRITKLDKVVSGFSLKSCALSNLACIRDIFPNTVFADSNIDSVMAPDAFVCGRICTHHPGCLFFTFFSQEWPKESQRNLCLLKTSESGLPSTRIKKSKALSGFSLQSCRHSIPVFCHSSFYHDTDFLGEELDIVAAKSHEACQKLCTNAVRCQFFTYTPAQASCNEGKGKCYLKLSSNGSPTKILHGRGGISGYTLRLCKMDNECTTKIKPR

Structure (SMILES)	Ki [1, 3]	Ki [2, 4]	Ki ([1]; measured at 37° C. (*))	other results
N#Cc1cccc2c1CCN(C(=O)c1cn(-c3cccc(Cl)c3F)nn1)C2C(=O)Nc1ccc(C(=O)O)cc1 (stereo not drawn) [Example 108, 4-(2-(1-(3-Chloro-2-fluorophenyl)-1H-1,2,3-triazole-4-carbonyl)-5-cyano-1,2,3,4-tetrahydroisoquinoline-1-carboxamido)benzoic acid]	50 nM	48.8 nM	–	–
Cc1c(C(=O)N2CCc3c(-c4cncnc4)cccc3C2C(=O)Nc2ccc(-c3ncc[nH]3)cc2)ncn1-c1cccc(Cl)c1F (stereo not drawn) [Example 136, N-(4-(1H-Imidazol-2-yl)phenyl)-2-(1-(3-chloro-2-fluorophenyl)-5-methyl-1H-imidazole-4-carbonyl)-5-(pyrimidin-5-yl)-1,2,3,4-tetrahydroisoquinoline-1-carboxamide, 2 TFA salt]	–	6.97 nM	157 nM	–
O=C(Nc1ccc2ncccc2c1)[C@H]1c2cccc(-c3cncnc3)c2CCN1C(=O)c1cn(-c2cccc(Cl)c2F)nn1 (stereo in doubt) [Example 125, 2-(1-(3-Chloro-2-fluorophenyl)-1H-1,2,3-triazole-4-carbonyl)-5-(pyrimidin-5-yl)-N-(quinolin-6-yl)-1,2,3,4-tetrahydroisoquinoline-1-carboxamide, TFA salt]	–	9.62 nM	54.1 nM	–
CN(C)C1CCN(c2cccc3c2CCN(C(=O)c2cn(-c4cccc(Cl)c4F)nn2)C3C(=O)Nc2ccc(C(N)=O)cc2)CC1 (stereo not drawn) [Example 99, N-(4-Carbamoylphenyl)-2-(1-(3-chloro-2-fluorophenyl)-1H-1,2,3-triazole-4-carbonyl)-5-(4-(dimethylamino)piperidin-1-yl)-1,2,3,4-tetrahydroisoquinoline-1-carboxamide, bis-TFA salt]	2.74 nM	< 5 nM	–	–
CN1CCN(c2cccc3c2CCN(C(=O)C2CC(c4cccc(Cl)c4F)=NO2)C3C(=O)Nc2ccc(C(=O)O)cc2)CC1=O (single isomer, unassigned) [Example 283, 4-(2-(3-(3-chloro-2-fluorophenyl)-4,5-dihydroisoxazole-5-carbonyl)-5-(4-methyl-3-oxopiperazin-1-yl)-1,2,3,4-tetrahydroisoquinoline-1-carboxamido)benzoic acid, TFA salt]	–	–	–	Ki ([1]; measured at 25° C. (no asterisk), TFA salt): 75.3 nM; Ki ([2]; read-out: Factor XIa Ki, measured at 25° C., TFA salt): 8.27 nM

Continued, in another order:

Ki [1, 3]	Ki [2, 4]	Ki ([1]; measured at 37° C. (*))	Structure (SMILES)	other results
5.26 nM	< 5 nM	–	CN(C)Cc1ccc(-c2cccc3c2CCN(C(=O)c2cn(-c4cccc(Cl)c4F)nn2)C3C(=O)Nc2ccc(C(=O)O)cc2)cc1 (stereo not drawn) [Example 154, 4-(2-(1-(3-chloro-2-fluorophenyl)-1H-1,2,3-triazole-4-carbonyl)-5-(4-((dimethylamino)methyl)phenyl)-1,2,3,4-tetrahydroisoquinoline-1-carboxamido)benzoic acid, TFA salt]	–
–	2400 nM	> 6000 nM	COC1CCN(c2cccc3c2CCN(C(=O)c2cccc(-c4cccc(Cl)c4F)n2)C3C(=O)Nc2ccc(C(=O)O)cc2)CC1 (stereo not drawn) [Example 325, 4-(2-(6-(3-Chloro-2-fluorophenyl)picolinoyl)-5-(4-methoxypiperidin-1-yl)-1,2,3,4-tetrahydroisoquinoline-1-carboxamido)benzoic acid, 2 TFA salt]	–
177 nM	236 nM	–	CN1CCN(c2cccc3c2CCN(C(=O)c2cncc(-c4ccccc4)c2)C3C(=O)Nc2ccc(C(=O)O)cc2)CC1 (stereo not drawn) [Example 321, 4-(5-(4-Methylpiperazin-1-yl)-2-(5-phenylnicotinoyl)-1,2,3,4-tetrahydroisoquinoline-1-carboxamido)benzoic acid]	–
77.9 nM	–	–	COC1CCN(c2cccc3c2CCN(C(=O)c2cnn(-c4cccc(Cl)c4F)c2C)C3C(=O)Nc2ccc(C(=O)O)cc2)CC1 (racemic) [Example 259, 4-(2-(1-(3-chloro-2-fluorophenyl)-5-methyl-1H-pyrazole-4-carbonyl)-5-(4-methoxypiperidin-1-yl)-1,2,3,4-tetrahydroisoquinoline-1-carboxamido)benzoic acid, TFA salt]	Ki [2]: < 5 nM
